Laboratory results: US11247965B2 (VenatoRx Pharmaceuticals, Inc., priority 2017, dated 2022)

Legend:
[1] = test system: HBV replication in HepAD38 cells; assay: Anti-HBV activity in HepAD38 cells, extracellular HBV DNA by QPCR; type: cell-based, HBV (genotype D, serotype ayw); details: Hepatitis B virus, HePAD38, 168 h, read-out: Anti-HBV EC50, HepAD38 cells, extracellular HBV DNA by QPCR, 7 days of incubation
How it was run: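 HepAD38 cells (HepG2 with tet-repressible HBV genotype D genome) seeded overnight, tetracycline removed, then treated 7 days with compounds (half-log dilutions, 30 μM–10 nM; 1:200 from DMSO). Supernatant HBV DNA quantified by QPCR against standard curve; % inhibition vs vehicle, EC50 by 4-parameter fit.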

[2] = In vitro cytotoxicity, MTT cell viability assay in HepG2 cells; type: cell-based; details: human, Cytotoxicity CC50
How it was run: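 Viability measured by MTT conversion, absorbance at 492 nm, as percent of vehicle-treated wells. Compounds spanned 30 μM to 1.0 nM in half-log steps over a 7-day exposure of parental HepG2 cells; CC50 derived by 4-parameter curve fit.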

With `CC[C@H](C)NC(=O)C(F)(F)c1c(C(=O)Nc2ccc(F)c(C)c2)ccn1C` [Example 108, (S)-2-(2-(sec-butylamino)-1,1-difluoro-2-oxoethyl)-N-(4-fluoro-3-methylphenyl)-1-methyl-1H-pyrrole-3-carboxamide] the EC50 [1] was under 5 µM and the CC50 at 7 days [2] was over 30 µM.

For `Cc1cc(NC(=O)c2ccc(F)c(C(F)(F)C(=O)N3[C@@H]4CCC[C@H]3C[C@@H](NS(C)(=O)=O)C4)c2)ccc1F` [Example 336, 3-(1,1-difluoro-2-((1R,3r,5S)-3-(methylsulfonamido)-9-azabicyclo[3.3.1]nonan-9-yl)-2-oxoethyl)-4-fluoro-N-(4-fluoro-3-methylphenyl)benzamide], the EC50 [1] was under 5 µM and the CC50 at 7 days [2] was over 30 µM.

In the case of `O=C(Nc1ccnc(Cl)c1)c1ccc(F)c(C(F)(F)C(=O)N2CCC(O)CC2)c1` [Example 167, N-(2-chloropyridin-4-yl)-3-(1,1-difluoro-2-(4-hydroxypiperidin-1-yl)-2-oxoethyl)-4-fluorobenzamide], the EC50 [1] is reported as 5 to 30 µM and the CC50 at 7 days [2] is reported as 5 to 30 µM.

`O=C(Nc1ccc(F)c(F)c1)c1ccc(F)c(C(F)(F)C(=O)N2CCC(O)CC2)c1` [Example 2, 3-(1,1-difluoro-2-(4-hydroxypiperidin-1-yl)-2-oxoethyl)-N-(3,4-difluorophenyl)-4-fluorobenzamide] showed an EC50 [1] of under 5 µM and a CC50 at 7 days [2] of 5 to 30 µM.

In the case of `Cn1ccc(C(=O)Nc2ccc(F)c(Cl)c2)c1C(F)(F)C(=O)NC(C)(C)C` [Example 137, 2-(2-(tert-butylamino)-1,1-difluoro-2-oxoethyl)-N-(3-chloro-4-fluorophenyl)-1-methyl-1H-pyrrole-3-carboxamide], the EC50 [1] is reported as under 5 µM and the CC50 at 7 days [2] is reported as over 30 µM.

In the case of `Cc1cc(NC(=O)c2ccc(C(F)(F)C(=O)NC(C)(C)C)s2)ccc1F` [Example 81, 5-(2-(tert-butylamino)-1,1-difluoro-2-oxoethyl)-N-(4-fluoro-3-methylphenyl)thiophene-2-carboxamide], the EC50 [1] is reported as 5 to 30 µM and the CC50 at 7 days [2] is reported as over 30 µM.

For `Cc1cc(NC(=O)c2cc(C(F)(F)C(=O)NC(C)(C)C)n(C)n2)ccc1F` [Example 165, 5-(2-(tert-butylamino)-1,1-difluoro-2-oxoethyl)-N-(4-fluoro-3-methylphenyl)-1-methyl-1H-pyrazole-3-carboxamide], the EC50 [1] was 5 to 30 µM and the CC50 at 7 days [2] was over 30 µM.

Work on `CC(=O)N1[C@H](C)CN(C(=O)C(F)(F)c2cc(C(=O)Nc3ccc(F)c(C)c3)ccc2F)C[C@@H]1C` [Example 295, 3-(2-((3R,5S)-4-acetyl-3,5-dimethylpiperazin-1-yl)-1,1-difluoro-2-oxoethyl)-4-fluoro-N-(4-fluoro-3-methylphenyl)benzamide] yielded an EC50 [1] of under 5 µM and a CC50 at 7 days [2] of 5 to 30 µM.

For `Cc1cc(NC(=O)c2ccc(F)c(C(F)(F)C(=O)N3[C@H](C)CN(S(C)(=O)=O)C[C@@H]3C)c2)ccc1F` [Example 293, 3-(2-((2S,6R)-2,6-dimethyl-4-(methylsulfonyl)piperazin-1-yl)-1,1-difluoro-2-oxoethyl)-4-fluoro-N-(4-fluoro-3-methylphenyl)benzamide], the EC50 [1] was under 5 µM and the CC50 at 7 days [2] was 5 to 30 µM.

With `Cc1cc(NC(=O)c2ccc(F)c(C(F)(F)C(=O)N3C4CCC3CC(O)C4)c2)ccc1F` [Example 78, 3-(1,1-difluoro-2-((1R,3r,5S)-3-hydroxy-8-azabicyclo[3.2.1]octan-8-yl)-2-oxoethyl)-4-fluoro-N-(4-fluoro-3-methylphenyl)benzamide] the EC50 [1] was under 5 µM and the CC50 at 7 days [2] was 5 to 30 µM.

Compound `Cc1cc(NC(=O)c2ccc(F)c(C(F)(F)C(=O)N3C4COCC3CC(=NO)C4)c2)ccc1F` [Example 273, 3-(1,1-difluoro-2-(7-(hydroxyimino)-3-oxa-9-azabicyclo[3.3.1]nonan-9-yl)-2-oxoethyl)-4-fluoro-N-(4-fluoro-3-methylphenyl)benzamide] has an EC50 [1] of under 5 µM and a CC50 at 7 days [2] of 5 to 30 µM.
